Test [1] concerns the target T1, Prostaglandin G/H synthase 1 (Homo sapiens, UniProt P23219). In words: Inhibitory activity against recombinant human prostaglandin G/H synthase 1.
Test [2] addresses T2, Prostaglandin G/H synthase 2 (Homo sapiens, UniProt P35354).
T2 sequence (P35354 whole entry): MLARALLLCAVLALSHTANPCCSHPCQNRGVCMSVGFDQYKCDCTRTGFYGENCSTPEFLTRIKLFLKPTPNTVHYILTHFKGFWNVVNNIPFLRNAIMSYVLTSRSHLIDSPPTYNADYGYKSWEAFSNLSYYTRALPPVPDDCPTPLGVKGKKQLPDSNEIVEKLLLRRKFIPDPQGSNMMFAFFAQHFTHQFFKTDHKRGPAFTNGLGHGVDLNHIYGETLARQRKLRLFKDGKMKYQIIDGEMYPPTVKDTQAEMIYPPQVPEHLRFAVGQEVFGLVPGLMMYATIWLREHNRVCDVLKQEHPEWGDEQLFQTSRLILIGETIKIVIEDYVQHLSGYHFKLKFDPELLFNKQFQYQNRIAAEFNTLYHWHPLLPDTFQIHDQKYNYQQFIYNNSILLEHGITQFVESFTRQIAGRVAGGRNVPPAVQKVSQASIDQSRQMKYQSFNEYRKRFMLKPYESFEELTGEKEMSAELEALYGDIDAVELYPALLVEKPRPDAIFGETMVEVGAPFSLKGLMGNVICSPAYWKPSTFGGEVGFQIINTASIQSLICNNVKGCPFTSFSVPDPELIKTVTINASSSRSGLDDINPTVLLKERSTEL
Description: Inhibitory potency against cyclooxygenase-2 in human whole blood assay

Test [3] has as its target T1, Prostaglandin G/H synthase 1.
Description: Inhibitory potency against Prostaglandin G/H synthase 1 in human whole blood assay
The target of test [4] is T2, Prostaglandin G/H synthase 2. This is another data set of the same source.
Description: Inhibitory activity against recombinant human Prostaglandin G/H synthase 2

SMILES strings stand for the structures.

T1 sequence (P23219 whole entry): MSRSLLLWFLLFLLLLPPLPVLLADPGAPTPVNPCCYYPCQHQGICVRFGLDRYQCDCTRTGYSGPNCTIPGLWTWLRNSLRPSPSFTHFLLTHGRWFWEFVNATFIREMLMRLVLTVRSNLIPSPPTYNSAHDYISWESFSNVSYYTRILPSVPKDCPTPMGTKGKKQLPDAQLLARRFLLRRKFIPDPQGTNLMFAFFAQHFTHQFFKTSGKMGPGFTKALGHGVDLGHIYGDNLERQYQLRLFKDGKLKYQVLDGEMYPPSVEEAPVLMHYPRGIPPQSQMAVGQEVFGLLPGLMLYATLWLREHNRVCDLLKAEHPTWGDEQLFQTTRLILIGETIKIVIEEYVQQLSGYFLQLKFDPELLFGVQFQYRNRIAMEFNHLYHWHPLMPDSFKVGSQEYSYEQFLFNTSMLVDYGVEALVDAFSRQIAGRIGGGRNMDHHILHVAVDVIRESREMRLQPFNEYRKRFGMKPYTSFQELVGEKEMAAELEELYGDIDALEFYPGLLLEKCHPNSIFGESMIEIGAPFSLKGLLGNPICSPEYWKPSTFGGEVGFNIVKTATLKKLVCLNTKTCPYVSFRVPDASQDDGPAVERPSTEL

For the molecule `CC(C(=O)O)c1ccc(CC2CCCC2=O)cc1` (stereo not drawn) [LOXOPROFEN], the IC50 is greater than 100 µM in test [1], 13.5 µM in test [2], 6.5 µM in test [3] and greater than 100 µM in test [4].

`CS(=O)(=O)c1ccc(C2=C(c3ccc(F)c(F)c3)C(=O)OC2)cc1`: the half-inhibitory concentration (IC50) is greater than 100 µM in test [1], 0.48 µM in test [2], 15.3 µM in test [3] and 0.23 µM in test [4].

The values above are taken from ChEMBL document CHEMBL1147594, “Evaluation of loxoprofen and its alcohol metabolites for potency and selectivity of inhibition of cyclooxygenase-2” (Bioorg Med Chem Lett, 2004).
